Test results published in paper PMC12140300, “Development of Carbon‐11 Labeled Pyrimidine Derivatives as Novel Positron Emission Tomography (PET) Agents Enabling Brain Sigma‐1 Receptor Imaging” (Advanced Science, 2025).

How the values were obtained:
Test in all cases: PDSP radioligand assay
Assay type in all cases: binding
GABAA = details: 10 µM
Experimental: (§1) The ex vivo binding affinities of σRs of CNY‐01 and CNY‐02 were measured using a competitive radioligand binding assay.^[ [35] ^]
(§2) Details of individual binding assay conditions and protocols are available at the NIMH PDSP website: https://pdsp.unc.edu/pdspweb/.

5-HT2A = 5-HT2A (Homo sapiens, UniProt P28223)
Experimental: as §1, §2

Beta3 = biological target: T1, Beta3 (Homo sapiens, UniProt P13945)
T1 construct: purchased NIMH Psychoactive Drug Screening Program (PDSP)
Experimental: as §1, §2

Alpha2B = biological target: T2, Alpha2B (Homo sapiens, UniProt P18089)
T2 sequence (P18089 1-450): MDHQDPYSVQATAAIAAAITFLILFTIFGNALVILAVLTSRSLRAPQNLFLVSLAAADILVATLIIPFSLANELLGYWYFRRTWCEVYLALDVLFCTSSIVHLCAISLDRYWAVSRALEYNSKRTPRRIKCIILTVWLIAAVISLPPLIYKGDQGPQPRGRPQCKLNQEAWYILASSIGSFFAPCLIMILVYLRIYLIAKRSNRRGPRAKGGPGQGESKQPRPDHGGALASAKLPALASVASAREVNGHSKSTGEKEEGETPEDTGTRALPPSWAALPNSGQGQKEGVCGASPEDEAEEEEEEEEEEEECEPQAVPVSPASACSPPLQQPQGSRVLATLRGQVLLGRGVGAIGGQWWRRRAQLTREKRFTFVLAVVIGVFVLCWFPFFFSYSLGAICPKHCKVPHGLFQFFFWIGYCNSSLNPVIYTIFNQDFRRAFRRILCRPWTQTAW
Experimental: as §1, §2

Beta2 = biological target: T3, Beta2 (Homo sapiens, UniProt P07550)
T3 construct: purchased NIMH Psychoactive Drug Screening Program (PDSP)
Experimental: as §1, §2

D2 = biological target: T4, D2 (Homo sapiens, UniProt P14416)
T4 construct: purchased NIMH Psychoactive Drug Screening Program (PDSP)
Experimental: as §1, §2

H2 = H2 (Homo sapiens, UniProt P25021)
Experimental: as §1, §2

5-HT3 = biological target: T5, 5-HT3 (Homo sapiens, UniProt P46098)
T5 construct: purchased NIMH Psychoactive Drug Screening Program (PDSP)
Experimental: as §1, §2

D5 = D5 (Homo sapiens, UniProt P21918)
Experimental: as §1, §2

5-HT2B = 5-HT2B (Homo sapiens, UniProt P41595)
Experimental: as §1, §2

M2 = biological target: T6, M2 (Homo sapiens, UniProt P08172)
T6 construct: purchased NIMH Psychoactive Drug Screening Program (PDSP)
Experimental: as §1, §2

H3 = H3 (Homo sapiens, UniProt Q9Y5N1)
Experimental: as §1, §2

Alpha1B = biological target: T7, Alpha1B (Homo sapiens, UniProt P35368)
T7 construct: purchased NIMH Psychoactive Drug Screening Program (PDSP)
Experimental: as §1, §2

D3 = D3 (Homo sapiens, UniProt P35462)
Experimental: as §1, §2

5-HT1A = biological target: T8, 5-HT1A (Homo sapiens, UniProt P08908)
T8 construct: purchased NIMH Psychoactive Drug Screening Program (PDSP)
Experimental: as §1, §2

M3 = M3 (Homo sapiens, UniProt P20309)
Experimental: as §1, §2

5-HT1B = 5-HT1B (Homo sapiens, UniProt P28222)
Experimental: as §1, §2

H4 = biological target: T9, H4 (Homo sapiens, UniProt Q9H3N8)
T9 construct: purchased NIMH Psychoactive Drug Screening Program (PDSP)
Experimental: as §1, §2

5-HT2C = biological target: T10, 5-HT2C (Homo sapiens, UniProt P28335)
T10 sequence (P28335 33-458): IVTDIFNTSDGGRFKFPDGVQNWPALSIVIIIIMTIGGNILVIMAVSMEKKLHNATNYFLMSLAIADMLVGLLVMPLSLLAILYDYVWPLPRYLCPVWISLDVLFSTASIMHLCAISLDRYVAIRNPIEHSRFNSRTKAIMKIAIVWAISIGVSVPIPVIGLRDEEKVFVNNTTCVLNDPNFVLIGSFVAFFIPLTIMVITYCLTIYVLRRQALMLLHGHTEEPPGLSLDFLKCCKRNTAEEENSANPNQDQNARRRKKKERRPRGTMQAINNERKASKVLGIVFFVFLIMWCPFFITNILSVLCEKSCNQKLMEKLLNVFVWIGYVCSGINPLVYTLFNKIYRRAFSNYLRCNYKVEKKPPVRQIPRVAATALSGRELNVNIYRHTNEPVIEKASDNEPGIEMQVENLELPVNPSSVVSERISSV
Experimental: as §1, §2

KOR = KOR (Homo sapiens, UniProt P41145)
Experimental: as §1, §2

5-HT6 = biological target: T11, 5-HT6 (Homo sapiens, UniProt P50406)
T11 construct: purchased NIMH Psychoactive Drug Screening Program (PDSP)
Experimental: as §1, §2

Alpha1D = biological target: T12, Alpha1D (Homo sapiens, UniProt P25100)
T12 construct: purchased NIMH Psychoactive Drug Screening Program (PDSP)
Experimental: as §1, §2

Alpha1A = biological target: T13, Alpha1A (Homo sapiens, UniProt P35348)
T13 construct: purchased NIMH Psychoactive Drug Screening Program (PDSP)
Experimental: as §1, §2

5-HT7A = 5-HT7A (Homo sapiens, UniProt P34969)
Experimental: as §1, §2

Chain of H2 (P25021 whole entry): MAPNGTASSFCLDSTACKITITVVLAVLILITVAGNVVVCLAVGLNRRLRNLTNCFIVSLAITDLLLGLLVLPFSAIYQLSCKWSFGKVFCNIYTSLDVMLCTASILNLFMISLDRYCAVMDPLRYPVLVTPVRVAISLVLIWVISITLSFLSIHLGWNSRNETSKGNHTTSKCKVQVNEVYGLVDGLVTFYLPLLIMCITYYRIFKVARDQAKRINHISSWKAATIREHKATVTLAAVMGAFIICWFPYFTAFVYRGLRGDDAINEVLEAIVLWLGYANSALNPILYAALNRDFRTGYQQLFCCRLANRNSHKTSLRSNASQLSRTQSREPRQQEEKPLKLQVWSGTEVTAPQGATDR
Chain of M3 (P20309 whole entry): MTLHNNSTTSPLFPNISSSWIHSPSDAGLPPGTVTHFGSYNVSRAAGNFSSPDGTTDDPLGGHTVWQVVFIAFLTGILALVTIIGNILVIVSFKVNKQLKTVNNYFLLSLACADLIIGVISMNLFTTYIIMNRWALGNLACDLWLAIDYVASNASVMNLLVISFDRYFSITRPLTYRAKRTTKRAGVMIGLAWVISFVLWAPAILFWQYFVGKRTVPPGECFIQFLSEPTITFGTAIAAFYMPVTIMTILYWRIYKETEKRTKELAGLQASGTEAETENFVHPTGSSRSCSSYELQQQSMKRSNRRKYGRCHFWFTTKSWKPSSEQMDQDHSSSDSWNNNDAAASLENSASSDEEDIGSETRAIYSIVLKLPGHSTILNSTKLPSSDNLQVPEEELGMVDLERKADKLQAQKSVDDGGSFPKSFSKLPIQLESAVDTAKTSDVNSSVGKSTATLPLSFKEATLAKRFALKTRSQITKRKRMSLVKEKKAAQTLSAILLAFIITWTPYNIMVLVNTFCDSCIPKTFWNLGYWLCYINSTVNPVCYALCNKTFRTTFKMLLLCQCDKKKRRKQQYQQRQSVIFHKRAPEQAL
Chain of 5-HT2A (P28223 whole entry, species assumed): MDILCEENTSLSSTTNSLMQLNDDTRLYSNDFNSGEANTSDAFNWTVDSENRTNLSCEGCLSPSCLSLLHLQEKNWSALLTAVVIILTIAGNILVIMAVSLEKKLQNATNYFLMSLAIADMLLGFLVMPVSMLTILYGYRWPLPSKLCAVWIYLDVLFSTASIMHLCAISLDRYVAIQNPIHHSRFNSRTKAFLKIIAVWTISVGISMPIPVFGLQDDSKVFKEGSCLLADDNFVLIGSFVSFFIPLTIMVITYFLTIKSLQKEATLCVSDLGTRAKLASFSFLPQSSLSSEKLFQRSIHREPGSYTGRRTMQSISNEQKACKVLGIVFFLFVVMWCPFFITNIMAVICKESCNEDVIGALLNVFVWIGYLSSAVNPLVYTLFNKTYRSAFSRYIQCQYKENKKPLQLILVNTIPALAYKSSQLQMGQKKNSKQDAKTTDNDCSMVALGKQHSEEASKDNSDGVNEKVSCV
Chain of 5-HT2B (P41595 whole entry, species assumed): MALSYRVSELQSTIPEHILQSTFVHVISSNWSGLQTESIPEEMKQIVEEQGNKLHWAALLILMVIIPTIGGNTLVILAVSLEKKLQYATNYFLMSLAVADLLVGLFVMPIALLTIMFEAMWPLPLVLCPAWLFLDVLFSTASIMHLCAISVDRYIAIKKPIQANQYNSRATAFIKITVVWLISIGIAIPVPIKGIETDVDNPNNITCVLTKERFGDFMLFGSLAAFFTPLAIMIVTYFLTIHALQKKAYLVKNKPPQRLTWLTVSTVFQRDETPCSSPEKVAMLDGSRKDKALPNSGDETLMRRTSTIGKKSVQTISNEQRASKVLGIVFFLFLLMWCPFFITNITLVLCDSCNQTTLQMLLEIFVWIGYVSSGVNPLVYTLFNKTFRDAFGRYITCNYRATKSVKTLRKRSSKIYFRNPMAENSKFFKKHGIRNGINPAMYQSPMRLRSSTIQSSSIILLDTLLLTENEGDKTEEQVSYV
Chain of 5-HT1B (P28222 whole entry, species assumed): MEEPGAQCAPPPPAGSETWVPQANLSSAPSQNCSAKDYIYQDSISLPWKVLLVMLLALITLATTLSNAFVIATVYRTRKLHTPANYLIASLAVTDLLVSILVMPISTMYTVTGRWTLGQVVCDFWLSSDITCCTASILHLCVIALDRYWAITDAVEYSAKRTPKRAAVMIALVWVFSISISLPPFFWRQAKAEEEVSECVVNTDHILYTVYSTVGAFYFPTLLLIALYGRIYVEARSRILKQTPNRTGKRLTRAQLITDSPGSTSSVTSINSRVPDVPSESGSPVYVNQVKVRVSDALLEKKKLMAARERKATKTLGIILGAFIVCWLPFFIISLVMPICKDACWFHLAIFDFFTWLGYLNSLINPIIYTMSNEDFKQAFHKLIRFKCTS
Chain of D3 (P35462 whole entry): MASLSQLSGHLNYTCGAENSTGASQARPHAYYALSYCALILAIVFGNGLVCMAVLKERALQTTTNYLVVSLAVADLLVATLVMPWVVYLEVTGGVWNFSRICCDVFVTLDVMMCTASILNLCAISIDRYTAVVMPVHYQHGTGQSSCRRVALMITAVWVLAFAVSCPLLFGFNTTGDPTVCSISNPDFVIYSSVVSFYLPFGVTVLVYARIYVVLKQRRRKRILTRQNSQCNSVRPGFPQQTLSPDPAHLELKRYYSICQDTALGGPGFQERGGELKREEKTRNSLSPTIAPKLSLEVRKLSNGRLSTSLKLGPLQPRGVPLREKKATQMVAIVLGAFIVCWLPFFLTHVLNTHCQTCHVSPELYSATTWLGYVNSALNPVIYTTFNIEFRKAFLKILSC
Chain of 5-HT7A (P34969 1-445 isoform P34969-2): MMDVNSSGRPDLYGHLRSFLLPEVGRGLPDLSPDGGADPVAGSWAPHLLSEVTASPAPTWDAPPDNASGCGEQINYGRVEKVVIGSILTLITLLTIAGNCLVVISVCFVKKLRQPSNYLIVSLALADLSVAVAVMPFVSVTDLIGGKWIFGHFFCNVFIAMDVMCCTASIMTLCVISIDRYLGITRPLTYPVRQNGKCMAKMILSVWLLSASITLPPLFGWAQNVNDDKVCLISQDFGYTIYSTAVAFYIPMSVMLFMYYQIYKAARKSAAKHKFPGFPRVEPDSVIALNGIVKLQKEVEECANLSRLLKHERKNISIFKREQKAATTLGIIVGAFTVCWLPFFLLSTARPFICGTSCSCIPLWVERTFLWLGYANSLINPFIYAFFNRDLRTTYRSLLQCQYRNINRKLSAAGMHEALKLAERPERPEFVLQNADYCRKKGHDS
Chain of KOR (P41145 whole entry): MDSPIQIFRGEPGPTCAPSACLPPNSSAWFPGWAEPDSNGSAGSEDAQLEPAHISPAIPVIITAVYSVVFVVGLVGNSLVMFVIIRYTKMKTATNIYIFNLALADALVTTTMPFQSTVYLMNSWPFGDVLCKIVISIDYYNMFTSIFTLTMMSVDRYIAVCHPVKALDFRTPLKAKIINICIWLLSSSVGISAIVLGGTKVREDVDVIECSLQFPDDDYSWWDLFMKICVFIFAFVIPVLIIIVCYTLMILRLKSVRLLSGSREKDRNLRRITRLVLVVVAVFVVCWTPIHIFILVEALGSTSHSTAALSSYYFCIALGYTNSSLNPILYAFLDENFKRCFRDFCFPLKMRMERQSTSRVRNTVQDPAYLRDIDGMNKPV
Chain of D5 (P21918 whole entry): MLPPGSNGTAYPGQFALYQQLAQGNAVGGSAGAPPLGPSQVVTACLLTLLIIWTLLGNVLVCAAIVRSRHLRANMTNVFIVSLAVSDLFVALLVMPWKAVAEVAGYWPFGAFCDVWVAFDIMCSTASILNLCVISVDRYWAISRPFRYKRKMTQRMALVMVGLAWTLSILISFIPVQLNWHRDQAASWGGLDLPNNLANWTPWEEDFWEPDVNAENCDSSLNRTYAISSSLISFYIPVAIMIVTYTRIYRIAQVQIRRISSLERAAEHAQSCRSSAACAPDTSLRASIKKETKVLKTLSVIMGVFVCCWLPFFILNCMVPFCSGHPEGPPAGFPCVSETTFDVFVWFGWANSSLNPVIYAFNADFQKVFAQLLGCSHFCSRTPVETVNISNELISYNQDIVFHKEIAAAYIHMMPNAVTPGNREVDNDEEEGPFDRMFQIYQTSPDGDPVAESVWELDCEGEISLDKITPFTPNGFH
Chain of H3 (Q9Y5N1 whole entry): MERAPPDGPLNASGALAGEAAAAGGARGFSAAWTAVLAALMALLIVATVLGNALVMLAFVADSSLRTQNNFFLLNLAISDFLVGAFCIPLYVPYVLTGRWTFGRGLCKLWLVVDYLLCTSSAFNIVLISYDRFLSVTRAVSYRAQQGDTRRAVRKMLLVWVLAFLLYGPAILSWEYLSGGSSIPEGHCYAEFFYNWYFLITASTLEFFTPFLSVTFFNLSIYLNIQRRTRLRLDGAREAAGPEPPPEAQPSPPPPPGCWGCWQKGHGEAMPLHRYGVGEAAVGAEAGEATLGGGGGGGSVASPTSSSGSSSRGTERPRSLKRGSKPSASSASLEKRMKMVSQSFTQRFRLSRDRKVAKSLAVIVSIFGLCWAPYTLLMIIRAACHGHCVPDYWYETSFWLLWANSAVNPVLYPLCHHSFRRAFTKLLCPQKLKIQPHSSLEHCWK
T9 sequence (Q9H3N8 whole entry): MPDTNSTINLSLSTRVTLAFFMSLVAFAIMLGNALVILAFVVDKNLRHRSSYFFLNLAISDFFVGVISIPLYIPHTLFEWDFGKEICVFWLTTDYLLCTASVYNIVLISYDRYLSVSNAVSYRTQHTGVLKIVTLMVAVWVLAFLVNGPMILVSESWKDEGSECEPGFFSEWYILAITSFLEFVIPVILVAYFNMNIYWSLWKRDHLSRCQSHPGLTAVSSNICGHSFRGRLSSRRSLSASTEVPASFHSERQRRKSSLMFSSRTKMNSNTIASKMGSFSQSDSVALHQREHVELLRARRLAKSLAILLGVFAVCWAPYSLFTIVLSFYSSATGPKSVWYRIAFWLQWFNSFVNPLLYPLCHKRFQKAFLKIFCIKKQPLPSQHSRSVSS

| Structure (SMILES) | Mean % (inhibition) (GABAA) [%] | inhibition at 10 µM (5-HT2A) [%] | inhibition at 10 µM (Beta3) [%] | Ki (Alpha2B) [nM] | inhibition at 10 µM (Alpha2B) [%] | inhibition at 10 µM (Beta2) [%] | inhibition at 10 µM (D2) [%] | Ki (H2) [nM] | inhibition at 10 µM (H2) [%] | inhibition at 10 µM (5-HT3) [%] | inhibition at 10 µM (D5) [%] | Ki (5-HT2B) [nM] | inhibition at 10 µM (5-HT2B) [%] | inhibition at 10 µM (M2) [%] | inhibition at 10 µM (H3) [%] | inhibition at 10 µM (Alpha1B) [%] | Ki (D3) [nM] | inhibition at 10 µM (D3) [%] | inhibition at 10 µM (5-HT1A) [%] | inhibition at 10 µM (M3) [%] | other results |
| --- | --- | --- | --- | --- | --- | --- | --- | --- | --- | --- | --- | --- | --- | --- | --- | --- | --- | --- | --- | --- | --- |
| COc1ccc(-c2nc(C)c(Cl)c(OCCCN3CCCCC3)n2)cc1 [CNY-01, 5‐chloro‐2‐(4‐methoxyphenyl)‐4‐methyl‐6‐(3‐(piperidin‐1‐yl)propoxy)pyrimidine] | 25.49 | 36.3 | 9.11 | 1350 | 93.1 | 4.03 | 4.43 | 709 | 89.7 | 7.61 | 27.2 | 914 | 77.1 | 36.4 | 62.8 | -11.4 | 521 | 65.8 | 17.5 | 16.3 | Ki (H3): 1060 nM; Ki (5-HT1B): 3200 nM; inhibition at 10 µM (5-HT1B): 79.8%; inhibition at 10 µM (H4): 24%; inhibition at 10 µM (5-HT2C): -5.06%; Ki (KOR): 1060 nM; inhibition at 10 µM (KOR): 61.1%; inhibition at 10 µM (5-HT6): 30.1%; inhibition at 10 µM (Alpha1D): 23%; inhibition at 10 µM (Alpha1A): 21.6%; Ki (5-HT7A): 4700 nM; inhibition at 10 µM (5-HT7A): 59.3% |
| Cc1nc(-c2ccc(Cl)cc2)nc(OCCCN2CCN(C)CC2)c1Cl [CNY-02, 5‐chloro‐2‐(4‐chlorophenyl)‐4‐methyl‐6‐(3‐(4‐methylpiperazin‐1‐yl)propoxy)pyrimidine] | 32.06 | 85.5 | -3.01 | 3390 | 68.4 | 11.7 | -0.57 | 1240 | 84.9 | -1.23 | 58 | 530 | 90.4 | 29.1 | 42.9 | -26.1 | 4910 | 66.1 | -2.49 | 54 | Ki (5-HT2A): 466 nM; Ki (D5): > 10000 nM; Ki (M3): 727 nM; Ki (5-HT1B): 3740 nM; inhibition at 10 µM (5-HT1B): 60.3%; inhibition at 10 µM (H4): 23.3%; Ki (5-HT2C): 268 nM; inhibition at 10 µM (5-HT2C): 89.4%; inhibition at 10 µM (KOR): 20.4%; inhibition at 10 µM (5-HT6): 28.1%; inhibition at 10 µM (Alpha1D): -14.8%; inhibition at 10 µM (Alpha1A): -1.08%; inhibition at 10 µM (5-HT7A): -4.02% |
